PubChem BioAssay (NCI)
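Cultured in 96-well plates, cells were exposed to test compound for 48 hours across five concentrations. Abbreviation: GI50, concentration required for 50% inhibition of growth. At the TGI there is no net growth.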

Assays:
Assay in all cases: NCI anticancer screen, dose series, 48 h
[1] = tested on: OVCAR-4 ovarian
[2] = tested on: NCI-H522 lung
[3] = tested on: TK-10 renal
[4] = tested on: A549 NSCLC
[5] = tested on: HCC-2998 colon
[6] = tested on: HL-60(TB) leukemia
[7] = tested on: ACHN renal
[8] = tested on: OVCAR-3 ovarian
[9] = tested on: K-562 leukemia
[10] = tested on: A498 renal
[11] = tested on: SNB-75 CNS
[12] = tested on: MDA-MB-231 breast
[13] = tested on: SR leukemia
[14] = tested on: UO-31 renal
[15] = tested on: SK-MEL-2 melanoma
[16] = tested on: MDA-MB-435
[17] = tested on: SK-MEL-28 melanoma
[18] = tested on: HCT-116 colon
[19] = tested on: SK-OV-3 ovarian
[20] = tested on: MOLT-4 leukemia
[21] = tested on: HS 578T breast
[22] = tested on: RXF 393 renal
[23] = tested on: BT-549 breast
[24] = tested on: HOP-92 NSCLC
[25] = tested on: PC-3 prostate
[26] = tested on: UACC-62 melanoma
[27] = tested on: EKVX NSCLC
[28] = tested on: NCI-H460 lung
[29] = tested on: SF-295 CNS
[30] = tested on: SF-268 CNS
[31] = tested on: IGROV1 ovarian
[32] = tested on: SN12C renal
[33] = tested on: SNB-19 CNS
[34] = tested on: NCI-H226 lung
[35] = tested on: OVCAR-8 ovarian
[36] = tested on: NCI/ADR-RES ovarian
[37] = tested on: 786-0 renal
[38] = tested on: HOP-62 NSCLC
[39] = tested on: LOX IMVI melanoma
[40] = tested on: SF-539 CNS
[41] = tested on: HCT-15 colon
[42] = tested on: MALME-3M melanoma
[43] = tested on: U251 CNS
[44] = tested on: T-47D breast
[45] = tested on: OVCAR-5 ovarian
[46] = tested on: RPMI-8226 leukemia
[47] = tested on: COLO 205 colon
[48] = tested on: HT29 colon
[49] = tested on: UACC-257 melanoma
[50] = tested on: NCI-H23 lung
[51] = tested on: CCRF-CEM leukemia
[52] = tested on: M14 melanoma
[53] = tested on: MCF7 breast
[54] = tested on: SW-620 colon
[55] = tested on: SK-MEL-5 melanoma
[56] = tested on: KM12 colon

## CC[C@H](C)[C@H]1NC(=O)[C@@H]([C@H](O)C(C)C)NC(=O)[C@@H](C)N(C)C(=O)[C@H](C)N(C)C(=O)[C@H](CC(C)C)NC(=O)[C@H](CC(C)C)N(C)C(=O)[C@H](C)N(C)C1=O
[1]
  GI50: 409 nM
  TGI: > 14300 nM
[2]
  GI50: 329 nM
  TGI: 4700 nM
[3]
  GI50: 276 nM
  TGI: 9720 nM
[4]
  GI50: 257 nM
  TGI: > 14300 nM
[5]
  GI50: 531 nM
  TGI: > 14300 nM
[6]
  GI50: 995 nM
  TGI: > 14300 nM
[7]
  GI50: 401 nM
  TGI: > 14300 nM
[8]
  GI50: 390 nM
  TGI: > 14300 nM
[9]
  GI50: 547 nM
  TGI: > 14300 nM
[10]
  GI50: 468 nM
  TGI: 5330 nM
[11]
  GI50: 280 nM
  TGI: > 14300 nM
[12]
  GI50: 507 nM
  TGI: > 14300 nM
[13]
  GI50: 526 nM
  TGI: > 14300 nM
[14]
  GI50: 383 nM
  TGI: > 14300 nM
[15]
  GI50: 233 nM
  TGI: 1270 nM
[16]
  GI50: 376 nM
  TGI: > 14300 nM
[17]
  GI50: 223 nM
  TGI: 1760 nM
[18]
  GI50: 198 nM
  TGI: > 14300 nM
[19]
  GI50: 418 nM
  TGI: 11100 nM
[20]
  GI50: 512 nM
  TGI: > 14300 nM
[21]
  GI50: 261 nM
  TGI: 4750 nM
[22]
  GI50: 256 nM
  TGI: 1900 nM
[23]
  GI50: 436 nM
  TGI: 8460 nM
[24]
  GI50: 397 nM
  TGI: 12100 nM
[25]
  GI50: 364 nM
  TGI: > 14300 nM
[26]
  GI50: 331 nM
  TGI: 4070 nM
[27]
  GI50: 341 nM
  TGI: > 14300 nM
[28]
  GI50: 170 nM
  TGI: 2240 nM
[29]
  GI50: 319 nM
  TGI: 9170 nM
[30]
  GI50: 276 nM
  TGI: > 14300 nM
[31]
  GI50: 276 nM
  TGI: > 14300 nM
[32]
  GI50: 221 nM
  TGI: > 14300 nM
[33]
  GI50: 266 nM
  TGI: > 14300 nM
[34]
  GI50: 456 nM
  TGI: 12400 nM
[35]
  GI50: 391 nM
  TGI: > 14300 nM
[36]
  GI50: 2300 nM
  TGI: > 14300 nM
[37]
  GI50: 267 nM
  TGI: > 14300 nM
[38]
  GI50: 225 nM
  TGI: 4260 nM
[39]
  GI50: 416 nM
  TGI: > 14300 nM
[40]
  GI50: 409 nM
  TGI: 4190 nM
[41]
  GI50: 538 nM
  TGI: > 14300 nM
[42]
  GI50: 286 nM
  TGI: 10500 nM
[43]
  GI50: 265 nM
  TGI: > 14300 nM
[44]
  GI50: 164 nM
  TGI: 1150 nM
[45]
  GI50: 367 nM
  TGI: 13300 nM
[46]
  GI50: 446 nM
  TGI: 5970 nM
[47]
  GI50: 278 nM
  TGI: 4390 nM
[48]
  GI50: 257 nM
  TGI: > 14300 nM
[49]
  GI50: 451 nM
  TGI: > 14300 nM
[50]
  GI50: 272 nM
  TGI: > 14300 nM
[51]
  GI50: 562 nM
  TGI: > 14300 nM
[52]
  GI50: 274 nM
  TGI: 3850 nM
[53]
  GI50: 192 nM
  TGI: > 14300 nM
[54]
  GI50: 327 nM
  TGI: > 14300 nM
[55]
  GI50: 516 nM
  TGI: > 14300 nM
[56]
  GI50: 326 nM
  TGI: > 14300 nM
